Details in all cases: human; call rule not given here
Data set [1] relates to Hepatotoxicity. Briefly: FDA HLAED, serum glutamic oxaloacetic transaminase (SGOT) increase.
The test system of data set [2] is Hepatotoxicity. Nature of the data set: FDA HLAED, liver enzyme composite activity.
Data set [3] relates to Hepatotoxicity. Nature of the data set: FDA HLAED, alkaline phosphatase increase.
Data set [4] concerns Hepatotoxicity. Briefly: FDA HLAED, serum glutamic pyruvic transaminase (SGPT) increase.
The test system of data set [5] is Hepatotoxicity. Nature of the data set: FDA HLAED, gamma-glutamyl transferase (GGT) increase.
In data set [6] the test system is Hepatotoxicity. Nature of the data set: FDA HLAED, lactate dehydrogenase (LDH) increase.
For GGT Increase - Index Value in this document: reference of the scale not given here.
For LDH Increase - Index Value in this document: reference of the scale not given here.

Turning to `N=C(N)NCC1COC2(CCCCC2)O1` (configuration not stated), in data set [1], the “SGOT Increase - Activity Score” value is “Inactive”, the “SGOT Increase - Index Value” was 0 and the “SGOT Increase - Number of Reports” value is recorded as below 4. Besides, in data set [2], the “Composite Activity - Active” value is 0, the “Composite Activity - Marginal” value is reported as 0 and the “Composite Activity - Score” value is “Inactive”. Besides, in data set [3], the “Alkaline Phosphatase Increase - Activity Score” value is reported as “Inactive”, the “Alkaline Phosphatase Increase - Index Value” was found to be 0 and the “Alkaline Phosphatase Increase - Number of Reports” value is listed as below 4. Besides, in data set [4], the “SGPT Increase - Activity Score” value was “Inactive”, the “SGPT Increase - Index Value” is listed as 0 and the “SGPT Increase - Number of Reports” value is below 4. Also, in data set [5], the “GGT Increase - Activity Score” value is listed as “Inactive”, the “GGT Increase - Index Value” came out at 0 and the “GGT Increase - Number of Reports” value is below 4. Moreover, in data set [6], the “LDH Increase - Activity Score” value is “Inactive”, the “LDH Increase - Index Value” is given as 0 and the “LDH Increase - Number of Reports” value is reported as below 4.

On to `CCCCC(=O)N(Cc1ccc(-c2ccccc2-c2nnn[nH]2)cc1)[C@H](C(=O)O)C(C)C`, for which, in data set [1], the “SGOT Increase - Activity Score” value is given as “Inactive”, the “SGOT Increase - Index Value” was 5 and the “SGOT Increase - Number of Reports” value is on record as below 4. Further, in data set [2], the “Composite Activity - Active” value is on record as 0, the “Composite Activity - Marginal” value was found to be 0 and the “Composite Activity - Score” value is “Inactive”. Besides, in data set [3], the “Alkaline Phosphatase Increase - Activity Score” value is on record as “Inactive”, the “Alkaline Phosphatase Increase - Index Value” is on record as 0 and the “Alkaline Phosphatase Increase - Number of Reports” value is recorded as below 4. Further, in data set [4], the “SGPT Increase - Activity Score” value is “Inactive”, the “SGPT Increase - Index Value” turned out to be 7.6 and the “SGPT Increase - Number of Reports” value is below 4. In data set [5], the “GGT Increase - Activity Score” value was “Inactive”, the “GGT Increase - Index Value” was 2.5 and the “GGT Increase - Number of Reports” value is reported as below 4. Also, in data set [6], the “LDH Increase - Activity Score” value was “Inactive”, the “LDH Increase - Index Value” was 0 and the “LDH Increase - Number of Reports” value was below 4.

As for `CC(C)(C)NC(=O)[C@@H]1C[C@@H]2CCCC[C@@H]2CN1C[C@@H](O)[C@H](Cc1ccccc1)NC(=O)[C@H](CC(N)=O)NC(=O)c1ccc2ccccc2n1`, in data set [1], the “SGOT Increase - Activity Score” value is given as “Inactive”, the “SGOT Increase - Index Value” was 0 and the “SGOT Increase - Number of Reports” value is below 4. Also, in data set [2] (Liver), the “Composite Activity - Active” value amounted to 0, the “Composite Activity - Marginal” value is 0 and the “Composite Activity - Score” value is given as “Inactive”. Besides, in data set [3], the “Alkaline Phosphatase Increase - Activity Score” value is on record as “Inactive”, the “Alkaline Phosphatase Increase - Index Value” is listed as 0 and the “Alkaline Phosphatase Increase - Number of Reports” value is reported as below 4. In addition, in data set [4], the “SGPT Increase - Activity Score” value is listed as “Inactive”, the “SGPT Increase - Index Value” came out at 0 and the “SGPT Increase - Number of Reports” value is on record as below 4. Moreover, in data set [5], the “GGT Increase - Activity Score” value was “Inactive”, the “GGT Increase - Index Value” turned out to be 0 and the “GGT Increase - Number of Reports” value is below 4. For the same compound, in data set [6], the “LDH Increase - Activity Score” value is “Inactive”, the “LDH Increase - Index Value” is on record as 0 and the “LDH Increase - Number of Reports” value was below 4.

On to `COc1ccc(-c2ccc3cc(C(=O)O)ccc3c2)cc1C12CC3CC(CC(C3)C1)C2`, for which, in data set [1], the “SGOT Increase - Activity Score” value is reported as “Inactive”, the “SGOT Increase - Index Value” is 0 and the “SGOT Increase - Number of Reports” value is reported as below 4. Also, in data set [2], the “Composite Activity - Active” value was 0, the “Composite Activity - Marginal” value was determined as 0 and the “Composite Activity - Score” value is reported as “Inactive”. Also, in data set [3], the “Alkaline Phosphatase Increase - Activity Score” value was “Inactive”, the “Alkaline Phosphatase Increase - Index Value” was determined as 0 and the “Alkaline Phosphatase Increase - Number of Reports” value is reported as below 4. In data set [4], the “SGPT Increase - Activity Score” value is given as “Inactive”, the “SGPT Increase - Index Value” is 0 and the “SGPT Increase - Number of Reports” value is listed as below 4. Besides, in data set [5], the “GGT Increase - Activity Score” value is on record as “Inactive”, the “GGT Increase - Index Value” is reported as 0 and the “GGT Increase - Number of Reports” value is on record as below 4. Also, in data set [6], the “LDH Increase - Activity Score” value is given as “Inactive”, the “LDH Increase - Index Value” is 0 and the “LDH Increase - Number of Reports” value is below 4.

As to `COc1ccc(CC2c3cc(OC)c(OC)cc3CC[N+]2(C)CCC(=O)OCCCCCOC(=O)CC[N+]2(C)CCc3cc(OC)c(OC)cc3C2Cc2ccc(OC)c(OC)c2)cc1OC` (configuration not stated), in data set [1], the “SGOT Increase - Activity Score” value is listed as “Inactive”, the “SGOT Increase - Index Value” is given as 0 and the “SGOT Increase - Number of Reports” value was below 4. Moreover, in data set [2], the “Composite Activity - Active” value is 0, the “Composite Activity - Marginal” value amounted to 0 and the “Composite Activity - Score” value is on record as “Inactive”. In addition, in data set [3], the “Alkaline Phosphatase Increase - Activity Score” value is “Inactive”, the “Alkaline Phosphatase Increase - Index Value” is 0 and the “Alkaline Phosphatase Increase - Number of Reports” value was below 4. In addition, in data set [4], the “SGPT Increase - Activity Score” value was “Inactive”, the “SGPT Increase - Index Value” amounted to 0 and the “SGPT Increase - Number of Reports” value is given as below 4. For the same compound, in data set [5], the “GGT Increase - Activity Score” value is “Inactive”, the “GGT Increase - Index Value” came to 0 and the “GGT Increase - Number of Reports” value was below 4. Moreover, in data set [6], the “LDH Increase - Activity Score” value is given as “Inactive”, the “LDH Increase - Index Value” is 0 and the “LDH Increase - Number of Reports” value is on record as below 4.

With `CO/N=C(\C(=O)N[C@@H]1C(=O)N2C(C(=O)[O-])=C(C[N+]3(C)CCCC3)CS[C@H]12)c1csc(N)n1`, in data set [1], the “SGOT Increase - Activity Score” value is listed as “Inactive”, the “SGOT Increase - Index Value” is 13.7 and the “SGOT Increase - Number of Reports” value is reported as below 4. Besides, in data set [2], the “Composite Activity - Active” value is 1, the “Composite Activity - Marginal” value stood at 0 and the “Composite Activity - Score” value is on record as “Inactive”. Further, in data set [3], the “Alkaline Phosphatase Increase - Activity Score” value is reported as “Inactive”, the “Alkaline Phosphatase Increase - Index Value” is recorded as 1 and the “Alkaline Phosphatase Increase - Number of Reports” value was below 4. Moreover, in data set [4], the “SGPT Increase - Activity Score” value is listed as “Active”, the “SGPT Increase - Index Value” was 68.4 and the “SGPT Increase - Number of Reports” value was “>= 4”. Moreover, in data set [5], the “GGT Increase - Activity Score” value is recorded as “Inactive”, the “GGT Increase - Index Value” came out at 27.4 and the “GGT Increase - Number of Reports” value is below 4. Moreover, in data set [6], the “LDH Increase - Activity Score” value is “Inactive”, the “LDH Increase - Index Value” stood at 27.4 and the “LDH Increase - Number of Reports” value is on record as below 4.

On to `CC(C)(C)NC(=O)[C@@H]1CN(Cc2cccnc2)CCN1C[C@@H](O)C[C@@H](Cc1ccccc1)C(=O)N[C@H]1c2ccccc2C[C@H]1O.O`, for which, in data set [1], the “SGOT Increase - Activity Score” value is “Active”, the “SGOT Increase - Index Value” turned out to be 137 and the “SGOT Increase - Number of Reports” value is reported as “>= 4”. In data set [2], the “Composite Activity - Active” value amounted to 5, the “Composite Activity - Marginal” value is listed as 0 and the “Composite Activity - Score” value is reported as “Active”. In addition, in data set [3], the “Alkaline Phosphatase Increase - Activity Score” value is on record as “Active”, the “Alkaline Phosphatase Increase - Index Value” is given as 54.8 and the “Alkaline Phosphatase Increase - Number of Reports” value is recorded as “>= 4”. Moreover, in data set [4], the “SGPT Increase - Activity Score” value was “Active”, the “SGPT Increase - Index Value” worked out at 116.4 and the “SGPT Increase - Number of Reports” value is recorded as “>= 4”. Besides, in data set [5], the “GGT Increase - Activity Score” value was “Active”, the “GGT Increase - Index Value” is 13.7 and the “GGT Increase - Number of Reports” value is given as below 4. In addition, in data set [6], the “LDH Increase - Activity Score” value was “Active”, the “LDH Increase - Index Value” came to 44.5 and the “LDH Increase - Number of Reports” value is reported as “>= 4”.

Consider `C=C1CC[C@@]2(O)[C@H]3Cc4ccc(O)c5c4[C@@]2(CCN3CC2CC2)[C@H]1O5`, for which, in data set [1], the “SGOT Increase - Activity Score” value is reported as “Inactive”, the “SGOT Increase - Index Value” is 0 and the “SGOT Increase - Number of Reports” value is recorded as below 4. Moreover, in data set [2], the “Composite Activity - Active” value is recorded as 0, the “Composite Activity - Marginal” value is given as 0 and the “Composite Activity - Score” value is given as “Inactive”. In data set [3], the “Alkaline Phosphatase Increase - Activity Score” value is on record as “Inactive”, the “Alkaline Phosphatase Increase - Index Value” was 0 and the “Alkaline Phosphatase Increase - Number of Reports” value is below 4. In addition, in data set [4], the “SGPT Increase - Activity Score” value is on record as “Inactive”, the “SGPT Increase - Index Value” came to 0 and the “SGPT Increase - Number of Reports” value was below 4. Also, in data set [5], the “GGT Increase - Activity Score” value was “Inactive”, the “GGT Increase - Index Value” stood at 0 and the “GGT Increase - Number of Reports” value is recorded as below 4. Further, in data set [6], the “LDH Increase - Activity Score” value is listed as “Inactive”, the “LDH Increase - Index Value” is 0 and the “LDH Increase - Number of Reports” value was below 4.

Consider `C[C@H]1O[C@H](O[C@H]2[C@H](O)[C@@H](O)[C@@H](O[C@H]3[C@H](O)[C@@H](O)C(O)O[C@@H]3CO)O[C@@H]2CO)[C@H](O)[C@@H](O)[C@@H]1N[C@H]1C=C(CO)[C@@H](O)[C@H](O)[C@H]1O` (some centres not stated) [ACARBOSE], for which, in data set [1], the “SGOT Increase - Activity Score” value is recorded as “Active”, the “SGOT Increase - Index Value” is on record as 5.2 and the “SGOT Increase - Number of Reports” value is “>= 4”. Moreover, in data set [2], the “Composite Activity - Active” value was determined as 3, the “Composite Activity - Marginal” value was 0 and the “Composite Activity - Score” value is recorded as “Active”. Moreover, in data set [3], the “Alkaline Phosphatase Increase - Activity Score” value is reported as “Inactive”, the “Alkaline Phosphatase Increase - Index Value” is given as 0 and the “Alkaline Phosphatase Increase - Number of Reports” value is given as below 4. In data set [4], the “SGPT Increase - Activity Score” value is “Active”, the “SGPT Increase - Index Value” came out at 5.2 and the “SGPT Increase - Number of Reports” value is reported as “>= 4”. In addition, in data set [5], the “GGT Increase - Activity Score” value was “Active”, the “GGT Increase - Index Value” is listed as 4.3 and the “GGT Increase - Number of Reports” value was “>= 4”. For the same compound, in data set [6], the “LDH Increase - Activity Score” value was “Inactive”, the “LDH Increase - Index Value” is 2.6 and the “LDH Increase - Number of Reports” value is reported as below 4.

The values above are taken from ChEMBL document CHEMBL1697781, “Assessment of the health effects of chemicals in humans: II. Construction of an adverse effects database for QSAR modeling” (Curr Drug Discov Technol, 2004).
